The source of these data is ChEMBL document CHEMBL1126422, “The preparation of novel dopamine analogues via palladium catalysed cyclisation reactions” (Bioorg Med Chem Lett, 1992).

Some results are limits rather than exact numbers.

In this assay the target is D(3) dopamine receptor (Rattus norvegicus, UniProt P19020). Description: Compound was tested for binding affinity at the rat Dopamine receptor D3 expressed in Chinese hamster ovary cells; No significant affinity. In kind it is cell-based.
Chain of D(3) dopamine receptor (P19020 whole entry): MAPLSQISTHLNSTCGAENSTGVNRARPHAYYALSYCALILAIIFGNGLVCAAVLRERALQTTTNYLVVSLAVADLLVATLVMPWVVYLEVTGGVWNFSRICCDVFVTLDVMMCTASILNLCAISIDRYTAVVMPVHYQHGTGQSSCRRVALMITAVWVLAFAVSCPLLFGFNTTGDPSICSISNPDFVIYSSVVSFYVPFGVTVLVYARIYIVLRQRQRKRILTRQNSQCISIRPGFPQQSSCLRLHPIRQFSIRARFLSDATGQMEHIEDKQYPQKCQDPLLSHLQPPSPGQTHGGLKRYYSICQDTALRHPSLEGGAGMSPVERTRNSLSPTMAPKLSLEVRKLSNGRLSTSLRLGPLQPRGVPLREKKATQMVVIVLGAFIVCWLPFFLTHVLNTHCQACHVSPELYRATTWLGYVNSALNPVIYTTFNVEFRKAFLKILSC

Turning to `C=C1c2ccccc2OC[C@@H]1NCCC.Cl`, the Log Ki was > -6.5.

Consider `CCCN[C@H]1COc2ccccc2[C@@H]1C.Cl`, for which the “Log Ki” value is listed as < -6.5.
